Earlier results in patent US10076117B2, “Pesticide formulation comprising a water soluble active ingredient and a penetration enhancer and use of the same” (ROTAM AGROCHEM INTERNATIONAL COMPANY LIMITED, priority 2014, dated 2018).

Conditions: water

Compound: COP(=O)(NC(C)=O)SC (stereo not shown) [acephate]
- solubility: 650 g in 1 L of water
